Results reported in ChEMBL document CHEMBL5357082, “Identification and Optimization of Small Molecule Pyrazolopyrimidine TLR7 Agonists for Applications in Immuno-oncology” (ACS Med Chem Lett, 2024).

What was measured:
Cytochrome P450 1A2 = target: T1, Cytochrome P450 1A2 (Homo sapiens, UniProt P05177); test: Inhibition of CYP1A2 (unknown origin); type: ADME; details: for inhibition (INH): human
T1 sequence (P05177 whole entry): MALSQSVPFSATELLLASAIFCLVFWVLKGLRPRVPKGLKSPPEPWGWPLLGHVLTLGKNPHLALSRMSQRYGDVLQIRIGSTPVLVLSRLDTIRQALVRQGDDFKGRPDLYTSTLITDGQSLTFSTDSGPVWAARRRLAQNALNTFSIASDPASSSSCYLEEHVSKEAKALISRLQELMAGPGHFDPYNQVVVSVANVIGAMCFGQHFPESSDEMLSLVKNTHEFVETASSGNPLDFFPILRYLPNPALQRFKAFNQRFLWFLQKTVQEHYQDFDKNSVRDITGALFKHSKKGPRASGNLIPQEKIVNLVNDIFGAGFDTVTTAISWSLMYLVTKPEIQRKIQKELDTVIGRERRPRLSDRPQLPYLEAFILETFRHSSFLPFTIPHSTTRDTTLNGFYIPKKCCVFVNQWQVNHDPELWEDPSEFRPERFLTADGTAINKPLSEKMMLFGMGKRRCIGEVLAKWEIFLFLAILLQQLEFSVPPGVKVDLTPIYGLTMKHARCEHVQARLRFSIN

[1] = Metabolic stability in mouse liver microsomes assessed as compound remaining at 0.5 uM incubated for 10 mins in presence of NADPH by UV absorbance based assay; type: ADME, Microsome; details: read-out: Stability
Cytochrome P450 3A4 [2] = target: T2, Cytochrome P450 3A4 (Homo sapiens, UniProt P08684); test: Inhibition of CYP3A4 (unknown origin) using BFC as substrate; type: ADME; details: for inhibition (INH): human
Cytochrome P450 2C8 = target: T3, Cytochrome P450 2C8 (Homo sapiens, UniProt P10632); test: Inhibition of CYP2C8 (unknown origin); type: ADME; details: for inhibition (INH): human
T3 sequence (P10632 whole entry): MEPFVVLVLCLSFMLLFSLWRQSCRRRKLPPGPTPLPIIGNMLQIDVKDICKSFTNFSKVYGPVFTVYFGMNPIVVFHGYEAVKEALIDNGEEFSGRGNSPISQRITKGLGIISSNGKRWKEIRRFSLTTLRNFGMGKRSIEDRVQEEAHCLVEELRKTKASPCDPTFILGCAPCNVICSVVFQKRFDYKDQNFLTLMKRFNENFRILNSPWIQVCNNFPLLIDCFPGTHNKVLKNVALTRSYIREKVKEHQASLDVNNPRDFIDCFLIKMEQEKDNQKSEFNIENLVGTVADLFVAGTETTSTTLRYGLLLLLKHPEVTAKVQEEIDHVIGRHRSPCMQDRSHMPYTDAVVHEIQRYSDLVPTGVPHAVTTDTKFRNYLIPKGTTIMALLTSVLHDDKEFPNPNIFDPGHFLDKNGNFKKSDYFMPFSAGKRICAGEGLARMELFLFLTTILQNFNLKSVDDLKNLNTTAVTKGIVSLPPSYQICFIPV

Cytochrome P450 2D6 = Cytochrome P450 2D6 (Homo sapiens, UniProt P10635); test: Inhibition of CYP2D6 (unknown origin); type: ADME; details: for inhibition (INH): human
Toll-like receptor 7 [3] = target: T4, Toll-like receptor 7 (Mus musculus, UniProt P58681); test: Agonist activity at mouse TLR7
T4 sequence (P58681 whole entry): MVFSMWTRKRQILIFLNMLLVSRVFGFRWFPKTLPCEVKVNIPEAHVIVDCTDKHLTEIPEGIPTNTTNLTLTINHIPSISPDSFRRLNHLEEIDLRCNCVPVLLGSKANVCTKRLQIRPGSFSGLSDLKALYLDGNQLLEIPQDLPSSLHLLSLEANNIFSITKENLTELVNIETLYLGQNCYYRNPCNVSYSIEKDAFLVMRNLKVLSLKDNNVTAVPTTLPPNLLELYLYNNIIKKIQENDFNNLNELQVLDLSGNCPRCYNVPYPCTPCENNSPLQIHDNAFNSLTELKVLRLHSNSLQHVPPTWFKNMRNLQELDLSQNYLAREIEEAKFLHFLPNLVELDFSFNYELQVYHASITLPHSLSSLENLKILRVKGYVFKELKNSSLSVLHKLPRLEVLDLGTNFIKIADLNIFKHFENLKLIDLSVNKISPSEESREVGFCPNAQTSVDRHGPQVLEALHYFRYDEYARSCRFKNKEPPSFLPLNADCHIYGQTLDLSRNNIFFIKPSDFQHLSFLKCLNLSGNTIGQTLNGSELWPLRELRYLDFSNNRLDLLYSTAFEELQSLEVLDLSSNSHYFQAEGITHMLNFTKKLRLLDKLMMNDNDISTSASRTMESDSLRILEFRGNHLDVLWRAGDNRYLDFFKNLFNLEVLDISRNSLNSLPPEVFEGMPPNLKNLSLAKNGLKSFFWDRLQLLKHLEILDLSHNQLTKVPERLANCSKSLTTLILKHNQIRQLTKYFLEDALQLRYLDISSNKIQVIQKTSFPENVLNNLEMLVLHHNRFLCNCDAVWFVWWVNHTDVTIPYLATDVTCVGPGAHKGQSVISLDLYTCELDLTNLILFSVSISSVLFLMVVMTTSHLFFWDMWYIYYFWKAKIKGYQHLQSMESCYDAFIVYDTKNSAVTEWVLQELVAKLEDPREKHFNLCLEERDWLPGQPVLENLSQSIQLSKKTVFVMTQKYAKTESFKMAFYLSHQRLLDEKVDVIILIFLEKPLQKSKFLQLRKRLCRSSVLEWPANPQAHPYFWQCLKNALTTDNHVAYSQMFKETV

[4] = Cytotoxicity against PHA-activated T-cells (unknown origin) assessed as inhibition of IL-2 induced cell proliferation measured after 72 hrs by MTS assay; type: toxicity, cell-based
Cytochrome P450 3A4 [5] = target: T2, Cytochrome P450 3A4; test: Inhibition of CYP3A4 (unknown origin) using BFC as substrate preincubated with compound followed by substrate addition at 30 mins; type: ADME
[6] = Metabolic stability in human liver microsomes assessed as compound remaining at 0.5 uM incubated for 10 mins in presence of NADPH by UV absorbance based assay; type: ADME, Microsome; details: read-out: Stability
[7] = target: Voltage-gated inwardly rectifying potassium channel KCNH2 (Homo sapiens, UniProt Q12809); test: Inhibition of hERG; type: toxicity; details: for inhibition (INH): human
Cytochrome P450 2C19 = Cytochrome P450 2C19 (Homo sapiens, UniProt P33261); test: Inhibition of CYP2C19 (unknown origin); type: ADME; details: for inhibition (INH): human
Cytochrome P450 2C9 = Cytochrome P450 2C9 (Homo sapiens, UniProt P11712); test: Inhibition of CYP2C9 (unknown origin); type: ADME; details: for inhibition (INH): human
Cytochrome P450 3A4 [8] = target: T2, Cytochrome P450 3A4; test: Inhibition of CYP3A4 (unknown origin) using BFC as substrate preincubated with compound followed by substrate addition at 5 mins; type: ADME
Toll-like receptor 7 [9] = target: T5, Toll-like receptor 7 (Homo sapiens, UniProt Q9NYK1); test: Agonist activity at human TLR7 in HEK-Blue hTLR7 cells harboring SEAP reporter transgene incubated for 18 hrs by quanti-blue reagent based assay; type: cell-based
T5 sequence (Q9NYK1 whole entry): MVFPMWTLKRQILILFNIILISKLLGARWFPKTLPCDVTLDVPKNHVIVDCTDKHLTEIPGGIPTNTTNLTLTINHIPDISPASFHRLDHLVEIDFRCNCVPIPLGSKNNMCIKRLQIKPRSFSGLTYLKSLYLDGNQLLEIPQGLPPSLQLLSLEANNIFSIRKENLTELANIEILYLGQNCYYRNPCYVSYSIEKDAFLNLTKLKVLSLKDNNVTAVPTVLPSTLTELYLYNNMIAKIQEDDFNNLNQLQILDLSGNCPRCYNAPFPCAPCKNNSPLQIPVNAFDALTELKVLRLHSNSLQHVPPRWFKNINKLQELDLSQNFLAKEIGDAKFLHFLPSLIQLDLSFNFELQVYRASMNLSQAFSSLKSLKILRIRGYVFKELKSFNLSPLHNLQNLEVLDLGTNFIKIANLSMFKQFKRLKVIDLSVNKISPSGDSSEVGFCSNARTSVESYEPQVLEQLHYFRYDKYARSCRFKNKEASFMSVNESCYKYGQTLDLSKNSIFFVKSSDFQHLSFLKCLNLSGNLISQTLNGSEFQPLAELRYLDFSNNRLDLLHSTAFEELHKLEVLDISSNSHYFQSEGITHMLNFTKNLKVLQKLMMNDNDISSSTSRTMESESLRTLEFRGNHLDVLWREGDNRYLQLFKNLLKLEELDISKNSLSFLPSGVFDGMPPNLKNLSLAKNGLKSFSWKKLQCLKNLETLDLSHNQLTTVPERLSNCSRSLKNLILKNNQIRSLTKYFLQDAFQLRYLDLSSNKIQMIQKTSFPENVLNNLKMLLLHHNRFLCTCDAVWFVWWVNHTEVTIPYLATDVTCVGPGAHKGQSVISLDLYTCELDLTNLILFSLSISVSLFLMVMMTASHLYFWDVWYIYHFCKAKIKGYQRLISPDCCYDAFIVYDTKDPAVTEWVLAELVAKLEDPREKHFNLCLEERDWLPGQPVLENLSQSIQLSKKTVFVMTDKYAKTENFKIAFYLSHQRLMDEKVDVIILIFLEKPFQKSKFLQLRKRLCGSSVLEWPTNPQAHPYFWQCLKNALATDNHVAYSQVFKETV

Chain of Voltage-gated inwardly rectifying potassium channel KCNH2 (Q12809 whole entry): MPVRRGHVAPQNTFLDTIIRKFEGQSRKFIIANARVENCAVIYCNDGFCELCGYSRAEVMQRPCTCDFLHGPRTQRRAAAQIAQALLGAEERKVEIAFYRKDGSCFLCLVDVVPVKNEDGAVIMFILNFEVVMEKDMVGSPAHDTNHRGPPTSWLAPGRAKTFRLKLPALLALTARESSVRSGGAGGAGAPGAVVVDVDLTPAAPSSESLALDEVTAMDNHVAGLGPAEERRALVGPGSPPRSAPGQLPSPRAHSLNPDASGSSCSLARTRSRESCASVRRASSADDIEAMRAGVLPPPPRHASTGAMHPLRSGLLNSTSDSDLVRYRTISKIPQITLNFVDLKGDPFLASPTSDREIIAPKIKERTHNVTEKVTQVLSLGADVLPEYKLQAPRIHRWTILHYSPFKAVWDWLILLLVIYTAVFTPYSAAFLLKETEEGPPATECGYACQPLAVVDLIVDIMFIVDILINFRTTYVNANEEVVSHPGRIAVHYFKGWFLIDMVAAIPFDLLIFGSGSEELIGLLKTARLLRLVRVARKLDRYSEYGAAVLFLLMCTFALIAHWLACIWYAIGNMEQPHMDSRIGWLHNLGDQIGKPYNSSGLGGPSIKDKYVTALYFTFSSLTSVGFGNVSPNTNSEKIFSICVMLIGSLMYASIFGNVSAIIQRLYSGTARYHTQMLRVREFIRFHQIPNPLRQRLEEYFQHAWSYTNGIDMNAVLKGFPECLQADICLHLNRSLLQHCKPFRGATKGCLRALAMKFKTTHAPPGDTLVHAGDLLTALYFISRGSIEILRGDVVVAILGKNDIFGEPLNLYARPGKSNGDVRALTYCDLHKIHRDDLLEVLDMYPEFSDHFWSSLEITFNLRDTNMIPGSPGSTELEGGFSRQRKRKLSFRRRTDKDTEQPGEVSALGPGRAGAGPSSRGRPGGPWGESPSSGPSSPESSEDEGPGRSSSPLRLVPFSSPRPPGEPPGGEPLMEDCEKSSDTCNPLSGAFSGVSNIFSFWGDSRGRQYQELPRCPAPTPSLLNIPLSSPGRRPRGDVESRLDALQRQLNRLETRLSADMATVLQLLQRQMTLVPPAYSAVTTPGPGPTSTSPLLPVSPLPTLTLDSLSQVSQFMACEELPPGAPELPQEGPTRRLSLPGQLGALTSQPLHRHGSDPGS
Chain of Cytochrome P450 2D6 (P10635 whole entry): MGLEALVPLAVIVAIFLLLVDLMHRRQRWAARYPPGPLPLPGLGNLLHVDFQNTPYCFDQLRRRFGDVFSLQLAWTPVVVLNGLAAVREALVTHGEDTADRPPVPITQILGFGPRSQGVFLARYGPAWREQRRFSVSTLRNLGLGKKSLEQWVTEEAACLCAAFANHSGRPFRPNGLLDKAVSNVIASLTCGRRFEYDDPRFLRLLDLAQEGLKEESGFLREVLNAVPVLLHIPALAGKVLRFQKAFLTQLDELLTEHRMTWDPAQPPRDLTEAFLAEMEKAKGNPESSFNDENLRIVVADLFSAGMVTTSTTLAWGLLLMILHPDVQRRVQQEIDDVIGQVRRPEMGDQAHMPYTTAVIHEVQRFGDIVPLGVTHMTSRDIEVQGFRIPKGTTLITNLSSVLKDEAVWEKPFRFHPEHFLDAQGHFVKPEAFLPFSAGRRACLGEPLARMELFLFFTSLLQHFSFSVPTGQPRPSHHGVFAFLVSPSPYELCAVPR
T2 sequence (P08684 whole entry): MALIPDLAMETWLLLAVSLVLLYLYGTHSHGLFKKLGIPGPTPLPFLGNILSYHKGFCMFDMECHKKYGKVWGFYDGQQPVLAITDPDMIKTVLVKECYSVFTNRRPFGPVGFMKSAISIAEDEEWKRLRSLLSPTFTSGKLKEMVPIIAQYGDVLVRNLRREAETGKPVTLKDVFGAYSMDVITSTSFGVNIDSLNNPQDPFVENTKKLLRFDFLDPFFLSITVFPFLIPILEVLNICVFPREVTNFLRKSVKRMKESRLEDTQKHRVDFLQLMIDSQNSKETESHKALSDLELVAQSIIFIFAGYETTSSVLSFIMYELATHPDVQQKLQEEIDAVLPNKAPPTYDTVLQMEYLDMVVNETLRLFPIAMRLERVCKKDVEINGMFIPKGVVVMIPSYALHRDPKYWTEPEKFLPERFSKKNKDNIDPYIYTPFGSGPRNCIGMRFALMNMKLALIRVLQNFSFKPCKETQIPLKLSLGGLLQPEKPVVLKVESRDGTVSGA
Chain of Cytochrome P450 2C9 (P11712 whole entry): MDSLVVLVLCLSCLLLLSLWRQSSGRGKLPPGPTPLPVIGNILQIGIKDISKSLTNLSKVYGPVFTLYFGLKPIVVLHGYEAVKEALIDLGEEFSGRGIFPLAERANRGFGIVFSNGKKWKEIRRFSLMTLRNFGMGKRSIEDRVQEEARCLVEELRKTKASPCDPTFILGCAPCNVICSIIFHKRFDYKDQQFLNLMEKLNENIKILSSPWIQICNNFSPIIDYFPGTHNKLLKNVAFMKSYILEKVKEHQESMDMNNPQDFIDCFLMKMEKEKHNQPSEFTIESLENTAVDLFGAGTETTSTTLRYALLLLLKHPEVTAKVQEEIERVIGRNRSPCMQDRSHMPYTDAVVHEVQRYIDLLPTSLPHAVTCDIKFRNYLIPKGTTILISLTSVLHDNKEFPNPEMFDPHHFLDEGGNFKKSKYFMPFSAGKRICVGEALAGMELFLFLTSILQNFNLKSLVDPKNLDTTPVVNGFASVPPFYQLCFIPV
Chain of Cytochrome P450 2C19 (P33261 whole entry): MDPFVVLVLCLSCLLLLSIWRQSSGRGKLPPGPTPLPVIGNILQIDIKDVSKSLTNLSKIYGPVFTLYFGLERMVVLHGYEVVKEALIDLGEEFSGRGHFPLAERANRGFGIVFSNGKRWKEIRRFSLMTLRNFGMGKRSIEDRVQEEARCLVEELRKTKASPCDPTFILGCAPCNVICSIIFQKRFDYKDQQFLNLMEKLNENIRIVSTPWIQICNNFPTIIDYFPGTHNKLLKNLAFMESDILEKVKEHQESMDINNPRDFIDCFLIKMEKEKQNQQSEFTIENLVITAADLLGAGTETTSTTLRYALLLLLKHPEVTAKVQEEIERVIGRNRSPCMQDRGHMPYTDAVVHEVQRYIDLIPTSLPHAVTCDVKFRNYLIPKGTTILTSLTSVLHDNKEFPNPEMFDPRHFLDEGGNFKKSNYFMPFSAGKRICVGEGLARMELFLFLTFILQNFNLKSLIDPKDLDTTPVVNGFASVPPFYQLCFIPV

IC50 (Cytochrome P450 1A2) [µM]	remaining at 10 min, 0.5 µM [1] [%]	IC50 (Cytochrome P450 3A4 [2]) [µM]	IC50 (Cytochrome P450 2C8) [µM]	IC50 (Cytochrome P450 2D6) [µM]	EC50 (Toll-like receptor 7 [3]) [µM]	IC50 (Cytochrome P450 3A4 [5]) [µM]	remaining at 10 min, 0.5 µM [6] [%]	IC50 (Cytochrome P450 2C19) [µM]	IC50 (Cytochrome P450 2C9) [µM]	IC50 (Cytochrome P450 3A4 [8]) [µM]	EC50 (Toll-like receptor 7 [9]) [µM]	Structure (SMILES)	IC50 at 72 h [4] [µM]	IC50 [7] [µM]	also measured
> 20	83	> 20	> 20	> 20	0.159	> 20	72	> 20	> 20	> 20		CCC[C@@H](CCO)Nc1nc(N)nc2cnn(Cc3ncc(C4=CC5(CCN(C(C)C)CC5)C4)cc3OC)c12	16	62	
> 20	47	> 20	> 20	> 20	> 5	> 20	74	> 20	> 20	> 20	0.572	CCCCNc1nc(N)nc2c(CC)nn(Cc3ncc(C4CCNCC4)cc3OC)c12	> 25	> 50	
> 20	100	> 20	> 20	> 20	0.124	> 20	93	> 20	> 20	> 20	0.049	CCC[C@@H](CCO)Nc1nc(N)nc2cnn(Cc3ncc(C4CCN(CCO)CC4)cc3OC)c12	> 25	> 50	
> 20	3	8.14	> 20	1.12			45	> 20	> 20	14.2		CCCCNc1nc(N)nc2cnn(Cc3ccc(CNC4CCC4)cc3OC)c12	15	24	
> 20	71	1	> 20	> 20	> 5	1	95	> 20	> 20	1.21		CCCCNc1nc(N)nc2c(C)nn(Cc3ncc(C4CCNCC4)cc3OC)c12	> 25	> 50	
	17				0.465		100				0.087	CCCCNc1nc(N)nc2cnn(Cc3ccc(C4CCNCC4)cc3OC(F)F)c12	> 25		inhibition (INH) (Cytochrome P450 1A2): Not Active; inhibition (INH) (Cytochrome P450 3A4 [2]): Not Active; inhibition (INH) (Cytochrome P450 2C8): Not Active; inhibition (INH) (Cytochrome P450 2D6): Not Active; inhibition (INH) [7]: Not Active; inhibition (INH) (Cytochrome P450 2C19): Not Active; inhibition (INH) (Cytochrome P450 2C9): Not Active
> 20	54	> 20	4.97	14.2	0.074	> 20	89	9.42	> 20	> 20		CCCCNc1nc(N)nc2cnn(Cc3ccc(C4CCNCC4)cc3OC)c12	> 25	4	
> 20	93	> 20	> 20	> 20	1.91	> 20	80	> 20	> 20	> 20		CCC[C@@H](CCO)Nc1nc(N)nc2cnn(Cc3ncc(C4=CC5(CCNCC5)C4)cc3OC)c12	> 25	10	
					0.626							CCC[C@@H](CCO)Nc1nc(N)nc2cnn(Cc3ncc(C4CC5(C4)CN(C(C)C)C5)cc3OC)c12	> 25		inhibition (INH) (Cytochrome P450 1A2): Not Active; inhibition (INH) (Cytochrome P450 3A4 [2]): Not Active; inhibition (INH) (Cytochrome P450 2C8): Not Active; inhibition (INH) (Cytochrome P450 2D6): Not Active; inhibition (INH) [7]: Not Active; inhibition (INH) (Cytochrome P450 2C19): Not Active; inhibition (INH) (Cytochrome P450 2C9): Not Active
> 20	86	> 20	> 20	> 20	0.127	> 20	75	> 20	> 20	> 20		CCC[C@@H](CCO)Nc1nc(N)nc2cnn(Cc3ncc(C4=CC5(CCN(C6CCOCC6)CC5)C4)cc3OC)c12	7.2	> 100	
